Key:
human V1a receptor = human V1a receptor (Homo sapiens (Human), UniProt P37288); experiment: Cellular in vitro assay for determining vasopressin receptor activity (V1a, aequorin luminescence); type: cell-based; details: for IC50: CHO cell line transfected with human V1a receptor, [Arg8]-vasopressin at EC50 concentration, read-out: IC50 hV1a; for ratio IC50 hV2/hV1a: selectivity, IC50 hV2 divided by IC50 hV1a
human V2 receptor = human V2 receptor (Homo sapiens (Human), UniProt P30518); experiment: Cellular in vitro assay for determining vasopressin receptor activity (V2, CRE-luciferase); type: cell-based; details: CHO cell line transfected with human V2 receptor; [Arg8]-vasopressin at EC50 concentration; read-out: IC50 hV2
Chain of human V2 receptor (P30518 whole entry): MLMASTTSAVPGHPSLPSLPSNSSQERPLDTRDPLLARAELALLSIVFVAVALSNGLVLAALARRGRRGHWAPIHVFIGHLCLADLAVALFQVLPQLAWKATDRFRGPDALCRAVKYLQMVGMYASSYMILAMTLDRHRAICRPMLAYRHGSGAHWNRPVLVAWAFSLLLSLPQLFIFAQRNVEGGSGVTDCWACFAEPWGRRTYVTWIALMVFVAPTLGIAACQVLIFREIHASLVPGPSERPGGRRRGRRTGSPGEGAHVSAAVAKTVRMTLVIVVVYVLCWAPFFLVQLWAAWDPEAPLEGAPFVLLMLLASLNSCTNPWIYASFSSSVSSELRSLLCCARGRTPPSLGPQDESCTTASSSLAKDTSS

Chain of human V1a receptor (P37288 whole entry): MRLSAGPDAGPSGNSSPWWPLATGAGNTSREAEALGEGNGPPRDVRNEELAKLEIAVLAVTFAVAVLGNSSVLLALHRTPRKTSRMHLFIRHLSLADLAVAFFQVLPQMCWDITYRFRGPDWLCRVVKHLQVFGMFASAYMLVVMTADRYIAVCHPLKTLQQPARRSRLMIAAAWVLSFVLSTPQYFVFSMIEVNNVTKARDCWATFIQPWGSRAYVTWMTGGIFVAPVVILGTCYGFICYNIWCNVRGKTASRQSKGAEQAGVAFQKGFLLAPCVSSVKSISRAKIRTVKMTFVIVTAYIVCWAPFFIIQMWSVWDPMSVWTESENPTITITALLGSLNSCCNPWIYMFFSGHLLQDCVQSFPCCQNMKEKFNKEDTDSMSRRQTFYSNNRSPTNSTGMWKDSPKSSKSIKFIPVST

IC50 (human V1a receptor) [nM] | IC50 (human V2 receptor) [nM] | ratio IC50 hV2/hV1a (human V1a receptor) | SMILES
215 | 5600 | – | O=C(CCC(F)(F)F)NC(Cn1c(-c2ccc(Cl)cc2)nn(Cc2ncn(-c3ncccc3Cl)n2)c1=O)C(F)(F)F (single isomer, unassigned) [Example 33, N-{3-[3-(4-Chlorophenyl)-1-{[1-(3-chloropyridin-2-yl)-1H-1,2,4-triazol-3-yl]methyl}-5-oxo-1,5-dihydro-4H-1,2,4-triazol-4-yl]-1,1,1-trifluoropropan-2-yl}-4,4,4-trifluorobutanamide]
0.82 | 33.5 | – | O=C(CCC(F)(F)F)NC(Cn1c(-c2ccc(Cl)cc2)nn(Cc2ncn(-c3ncccc3Cl)n2)c1=O)C(F)(F)F (single isomer, unassigned) [Example 34, N-{3-[3-(4-Chlorophenyl)-1-{[1-(3-chloropyridin-2-yl)-1H-1,2,4-triazol-3-yl]methyl}-5-oxo-1,5-dihydro-4H-1,2,4-triazol-4-yl]-1,1,1-trifluoropropan-2-yl}-4,4,4-trifluorobutanamide]
3.5 | 890 | 254.3 | O=C1CC[C@@H](C(=O)NC(Cn2c(-c3ccc(Cl)cc3)nn(Cc3ncn(-c4ncccc4Cl)n3)c2=O)C(F)(F)F)N1 (single isomer, unassigned) [Example 36, N-{3-[3-(4-Chlorophenyl)-1-{[1-(3-chloropyridin-2-yl)-1H-1,2,4-triazol-3-yl]methyl}-5-oxo-1,5-dihydro-4H-1,2,4-triazol-4-yl]-1,1,1-trifluoropropan-2-yl}-5-oxo-L-prolinamide]
295 | 32000 | 108.5 | O=C1CC[C@@H](C(=O)NC(Cn2c(-c3ccc(Cl)cc3)nn(Cc3ncn(-c4ncccc4Cl)n3)c2=O)C(F)(F)F)N1 (single isomer, unassigned) [Example 37, N-{3-[3-(4-Chlorophenyl)-1-{[1-(3-chloropyridin-2-yl)-1H-1,2,4-triazol-3-yl]methyl}-5-oxo-1,5-dihydro-4H-1,2,4-triazol-4-yl]-1,1,1-trifluoropropan-2-yl}-5-oxo-L-prolinamide]
0.48 | 53.2 | – | O=C(NC(Cn1c(-c2ccc(Cl)cc2)nn(Cc2ncn(-c3ncccc3Cl)n2)c1=O)C(F)(F)F)C1CS(=O)(=O)C1 (single isomer, unassigned) [Example 39, N-{3-[3-(4-Chlorophenyl)-1-{[1-(3-chloropyridin-2-yl)-1H-1,2,4-triazol-3-yl]methyl}-5-oxo-1,5-dihydro-4H-1,2,4-triazol-4-yl]-1,1,1-trifluoropropan-2-yl}thietane-3-carboxamide 1,1-dioxide]
370 | 9870 | – | O=C(NC(Cn1c(-c2ccc(Cl)cc2)nn(Cc2ncn(-c3ncccc3Cl)n2)c1=O)C(F)(F)F)C1CS(=O)(=O)C1 (single isomer, unassigned) [Example 40, N-{3-[3-(4-Chlorophenyl)-1-{[1-(3-chloropyridin-2-yl)-1H-1,2,4-triazol-3-yl]methyl}-5-oxo-1,5-dihydro-4H-1,2,4-triazol-4-yl]-1,1,1-trifluoropropan-2-yl}thietane-3-carboxamide 1,1-dioxide]
1350 | 12100 | – | O=C(NC(Cn1c(-c2ccc(Cl)cc2)nn(Cc2ncn(-c3ncccc3Cl)n2)c1=O)C(F)(F)F)C1(C(F)(F)F)CC1 (single isomer, unassigned) [Example 42, N-{3-[3-(4-Chlorophenyl)-1-{[1-(3-chloropyridin-2-yl)-1H-1,2,4-triazol-3-yl]methyl}-5-oxo-1,5-dihydro-4H-1,2,4-triazol-4-yl]-1,1,1-trifluoropropan-2-yl}-1-(trifluoromethyl)cyclopropane-carboxamide]
235 | 2300 | – | CS(=O)(=O)CC(=O)NC(Cn1c(-c2ccc(Cl)cc2)nn(Cc2ncn(-c3ncccc3Cl)n2)c1=O)C(F)(F)F (single isomer, unassigned) [Example 45, N-{3-[3-(4-Chlorophenyl)-1-{[1-(3-chloropyridin-2-yl)-1H-1,2,4-triazol-3-yl]methyl}-5-oxo-1,5-dihydro-4H-1,2,4-triazol-4-yl]-1,1,1-trifluoropropan-2-yl}-2-(methylsulfonyl)acetamide]
1.35 | 57.8 | – | CS(=O)(=O)CC(=O)NC(Cn1c(-c2ccc(Cl)cc2)nn(Cc2ncn(-c3ncccc3Cl)n2)c1=O)C(F)(F)F (single isomer, unassigned) [Example 46, N-{3-[3-(4-Chlorophenyl)-1-{[1-(3-chloropyridin-2-yl)-1H-1,2,4-triazol-3-yl]methyl}-5-oxo-1,5-dihydro-4H-1,2,4-triazol-4-yl]-1,1,1-trifluoropropan-2-yl}-2-(methylsulfonyl)acetamide]
40.5 | 2400 | 59.3 | O=C1NCC(C(=O)NC(Cn2c(-c3ccc(Cl)cc3)nn(Cc3ncn(-c4ncccc4Cl)n3)c2=O)C(F)(F)F)N1 (stereo not drawn) [Example 2]
4.1 | 445 | 108.5 | O=C(NC(Cn1c(-c2ccc(Cl)cc2)nn(Cc2ncn(-c3ncccc3Cl)n2)c1=O)C(F)(F)F)C1CCO1 (stereo not drawn) [Example 3, N-{3-[3-(4-Chlorophenyl)-1-{[1-(3-chloropyridin-2-yl)-1H-1,2,4-triazol-3-yl]methyl}-5-oxo-1,5-dihydro-4H-1,2,4-triazol-4-yl]-1,1,1-trifluoropropan-2-yl}oxetane-2-carboxamide]
1.65 | 130 | 78.8 | O=C(NC(Cn1c(-c2ccc(Cl)cc2)nn(Cc2ncn(-c3ncccc3Cl)n2)c1=O)C(F)(F)F)C1CC1(F)F (stereo not drawn) [Example 7, N-{3-[3-(4-Chlorophenyl)-1-{[1-(3-chloropyridin-2-yl)-1H-1,2,4-triazol-3-yl]methyl}-5-oxo-1,5-dihydro-4H-1,2,4-triazol-4-yl]-1,1,1-trifluoropropan-2-yl}-2,2-difluorocyclopropanecarboxamide]
6.1 | 365 | 59.8 | CC(F)C(=O)NC(Cn1c(-c2ccc(Cl)cc2)nn(Cc2ncn(-c3ncccc3Cl)n2)c1=O)C(F)(F)F (stereo not drawn) [Example 10]
22.5 | 560 | 24.9 | O=C(NC(Cn1c(-c2ccc(Cl)cc2)nn(Cc2ncn(-c3ncccc3Cl)n2)c1=O)C(F)(F)F)C1CC1F (stereo not drawn) [Example 12, N-{3-[3-(4-Chlorophenyl)-1-{[1-(3-chloropyridin-2-yl)-1H-1,2,4-triazol-3-yl]methyl}-5-oxo-1,5-dihydro-4H-1,2,4-triazol-4-yl]-1,1,1-trifluoropropan-2-yl}-2-fluorocyclopropanecarboxamide]
2.5 | 33.5 | 13.4 | O=C(NC(Cn1c(-c2ccc(Cl)cc2)nn(Cc2ncn(-c3ncccc3Cl)n2)c1=O)C(F)(F)F)C1CC1C(F)(F)F (stereo not drawn) [Example 18, N-{3-[3-(4-Chlorophenyl)-1-{[1-(3-chloropyridin-2-yl)-1H-1,2,4-triazol-3-yl]methyl}-5-oxo-1,5-dihydro-4H-1,2,4-triazol-4-yl]-1,1,1-trifluoropropan-2-yl}-2-(trifluoromethyl)cyclopropanecarboxamide]
1.01 | 72.5 | – | CC(C)(C)OC(=O)N1CCC(C(=O)NC(Cn2c(-c3ccc(Cl)cc3)nn(Cc3ncn(-c4ncccc4Cl)n3)c2=O)C(F)(F)F)C1 (stereo not drawn) [Example 23, tert-Butyl 3-({3-[3-(4-chlorophenyl)-1-{[1-(3-chloropyridin-2-yl)-1H-1,2,4-triazol-3-yl]methyl}-5-oxo-1,5-dihydro-4H-1,2,4-triazol-4-yl]-1,1,1-trifluoropropan-2-yl}carbamoyl)pyrrolidine-1-carboxylate]
4.4 | 708 | 160.8 | O=C(NC(Cn1c(-c2ccc(Cl)cc2)nn(Cc2ncn(-c3ncccc3Cl)n2)c1=O)C(F)(F)F)C1CCNC1 (stereo not drawn) [Example 24, N-{3-[3-(4-Chlorophenyl)-1-{[1-(3-chloropyridin-2-yl)-1H-1,2,4-triazol-3-yl]methyl}-5-oxo-1,5-dihydro-4H-1,2,4-triazol-4-yl]-1,1,1-trifluoropropan-2-yl}pyrrolidine-3-carboxamide]
1.85 | 22.5 | – | CC(C)(C)OC(=O)NC1(C(=O)NC(Cn2c(-c3ccc(Cl)cc3)nn(Cc3ncn(-c4ncccc4Cl)n3)c2=O)C(F)(F)F)CCC1 (stereo not drawn) [Example 28, tert-Butyl [1-({3-[3-(4-chlorophenyl)-1-{[1-(3-chloropyridin-2-yl)-1H-1,2,4-triazol-3-yl]methyl}-5-oxo-1,5-dihydro-4H-1,2,4-triazol-4-yl]-1,1,1-trifluoropropan-2-yl}carbamoyl)cyclobutyl]-carbamate]
6.3 | 213 | 33.9 | O=C(NC(Cn1c(-c2ccc(Cl)cc2)nn(Cc2ncn(-c3ncccc3Cl)n2)c1=O)C(F)(F)F)C1CCS(=O)(=O)C1 (stereo not drawn) [Example 30, N-{3-[3-(4-Chlorophenyl)-1-{[1-(3-chloropyridin-2-yl)-1H-1,2,4-triazol-3-yl]methyl}-5-oxo-1,5-dihydro-4H-1,2,4-triazol-4-yl]-1,1,1-trifluoropropan-2-yl}tetrahydrothiophene-3-carboxamide 1,1-dioxide]
1.4 | 57.2 | 40.9 | O=C(N[C@@H](Cn1c(-c2ccc(Cl)cc2)nn(Cc2ncn(-c3ncccc3Cl)n2)c1=O)C(F)(F)F)C1(C(F)(F)F)CC1 [Example 43]
1.85 | 50 | 27.0 | O=C(NC(Cn1c(-c2ccc(Cl)cc2)nn(Cc2ncn(-c3ncccc3Cl)n2)c1=O)C(F)(F)F)C1CCCN1 (stereo not drawn) [Example 47, N-{3-[3-(4-Chlorophenyl)-1-{[1-(3-chloropyridin-2-yl)-1H-1,2,4-triazol-3-yl]methyl}-5-oxo-1,5-dihydro-4H-1,2,4-triazol-4-yl]-1,1,1-trifluoropropan-2-yl}-prolinamide]
3.2 | 150 | 46.9 | O=C(NC(Cn1c(-c2ccc(Cl)cc2)nn(Cc2ncn(-c3ncccc3Cl)n2)c1=O)C(F)(F)F)[C@@H]1CC(C(F)(F)F)CN1 (stereo partly drawn) [Example 50]

From patent publication US11149023B2, “Substituted triazole derivatives and uses thereof” (Bayer Pharma Aktiengesellschaft, priority 2017, dated 2021)
